Measurements as given in patent publication US20260184807A1, “Methods for Treating Rheumatoid Arthritis Using a Syndecan-1 Inhibitor or Syntenin-1 Inhibitor” (The United States Government as represented by the …, priority 2022, published 2026).

Tested on: HUVECs
Assay: Syntenin-1 stimulation and inhibition in HUVECs (qRT-PCR)
Type: cell-based, human
Details: Syntenin-1 1000 ng/ml, mTORi 1 μM, cMYCi 50 μM
Experimental: FIGS. 11A-J show Syntenin-1 reprogrammed endothelial cells display a robust inflammatory phenotype. Relative expression of Syntenin-1 (FIG. 11A) or SDC-1 (FIG. 11B) was determined by RNAseq (Lewis M J, et al. Cell reports. 2019; 28:2455-2470 e2455) in synovial tissue biopsies from RA non-responsive (Non-R)(ΔDAS28≤0.6, n=16-23) and moderate (ΔDAS28 1.2 & >0.6, n=21) and good responsive (ΔDAS28>1.2, n=35-50) patients. […] HUVECs were treated with PBS (ctrl) or Syntenin-1 (1000 ng/ml) for 6 h and transcription of IRFs (FIG. 11E), inflammatory mediators (FIG. 11F), TLRs (FIG. 11I), and pro-repair factors (FIG. 11J) were assessed by qRT-PCR (n=7-12). HUVECs were treated with PBS or Syntenin-1 (1000 ng/ml) in the presence or absence of SDC-1 Ab (SDCab; 1:100), IL-5R Ab (IL5Ra; 2 μg/ml), or PDZli (PDZ1; 10 μM) for 6 h before quantifying transcription levels of TNFα (FIG. 11G) and IL-1β (FIG. 11H), (5-7). Data are presented as mean±SEM; significant differences were determined by the Mann-Whitney test, 2way ANOVA, or one-way ANOVA. *p<0.05, **p<0.01, ***p<0.001, ****p<0.0001. […]
Syntenin-1 stimulation and inhibition. […] Cells were subsequently harvested in TRIzol reagent (Life Technologies) or RIPA buffer (Cell Signaling Technology) for mRNA quantification and western blot analysis; conditioned media was collected for ELISA.
Quantitative Real-Time PCR. […]

Q: Which “TNF expression in Syntenin-1-reconfigured endothelial cells” value (HIF1αi 2 μM, FIG. 13H) does the source give for CO[C@H]1C[C@@H]2CC[C@@H](C)[C@@](O)(O2)C(=O)C(=O)N2CCCC[C@H]2C(=O)O[C@H]([C@H](C)C[C@@H]2CC[C@@H](OCCO)[C@H](OC)C2)CC(=O)[C@H](C)/C=C(\C)[C@@H](O)[C@@H](OC)C(=O)[C@H](C)C[C@H](C)/C=C/C=C/C=C/1C [mTORi, Everolimus] here?
A: diminished

Q: And the “Syntenin-1-elevated HIF1α expression levels” value (FIG. 13E)?
A: dysregulated
